Reference: the NIST ThermoML archive (doi:10.1016/j.jct.2003.11.012)

How the values were obtained:
[1] = Molar enthalpy of transition or fusion
[2] = for vapor or sublimation pressure: Liquid; for Triple point temperature: Adiabatic calorimetry
[3] = molar heat capacity at saturation pressure

C1CCC(SC2CCCCC2)CC1 [dicyclohexyl sulfide]
Details | Molar enthalpy of transition or fusion [kcal/mol] | Triple point temperature [K] | vapor or sublimation pressure [kPa]
[1], Crystal 1 | 1.358 | – | –
[1], Crystal 2 | 2.392 | – | –
[2], 334.98 K | – | – | 0.0195
[2], 344.99 K | – | – | 0.0387
[2], 354.98 K | – | – | 0.073
[2], 364.98 K | – | – | 0.1323
[2], 374.98 K | – | – | 0.2307
[2], 384.97 K | – | – | 0.3883
[2], 394.98 K | – | – | 0.6338
[2], 404.98 K | – | – | 1.004
[2], 414.96 K | – | – | 1.546
[2], 419.97 K | – | – | 1.902
[2], 424.96 K | – | – | 2.324
[2], 429.96 K | – | – | 2.825
[2], Crystal 1 | – | 284.2 | –
[2], Crystal 2 | – | 264.7 | –
[2], Crystal 3 | – | 41.35 | –

[3]
Details | molar heat capacity [J/K/mol]
5 K, Crystal 3 | 0.65
7.076 K, Crystal 3, Vacuum adiabatic calorimetry | 1.83
8.093 K, Crystal 3, Vacuum adiabatic calorimetry | 2.68
9.092 K, Crystal 3, Vacuum adiabatic calorimetry | 3.7
10 K, Crystal 3 | 4.79
10.12 K, Crystal 3, Vacuum adiabatic calorimetry | 4.94
11.22 K, Crystal 3, Vacuum adiabatic calorimetry | 6.32
12.48 K, Crystal 3, Vacuum adiabatic calorimetry | 8.05
13.88 K, Crystal 3, Vacuum adiabatic calorimetry | 10.26
15 K, Crystal 3 | 12.08
15.44 K, Crystal 3, Vacuum adiabatic calorimetry | 12.81
17.17 K, Crystal 3, Vacuum adiabatic calorimetry | 15.8
19.09 K, Crystal 3, Vacuum adiabatic calorimetry | 19.16
20 K, Crystal 3 | 20.77
21.2 K, Crystal 3, Vacuum adiabatic calorimetry | 22.91
23.53 K, Crystal 3, Vacuum adiabatic calorimetry | 27.09
25 K, Crystal 3 | 29.63
26.12 K, Crystal 3, Vacuum adiabatic calorimetry | 31.54
29 K, Crystal 3, Vacuum adiabatic calorimetry | 36.28
30 K, Crystal 3 | 37.98
32.2 K, Crystal 3, Vacuum adiabatic calorimetry | 41.46
33.51 K, Crystal 3, Vacuum adiabatic calorimetry | 43.05
35 K, Crystal 3 | 45.26
35.74 K, Crystal 3, Vacuum adiabatic calorimetry | 46.49
36 K, Crystal 3 | 46.79
37 K, Crystal 3 | 48.49
37.54 K, Crystal 3, Vacuum adiabatic calorimetry | 49.5
38 K, Crystal 3 | 50.1
39 K, Crystal 3 | 53.43
39.08 K, Crystal 3, Vacuum adiabatic calorimetry | 53.4
40 K, Crystal 3 | 59.33
40.2 K, Crystal 3 | 61.57
40.4 K, Crystal 3 | 65.04
40.6 K, Crystal 3 | 70.56
40.8 K, Crystal 3 | 79.24
41 K, Crystal 3 | 92.56
41.1 K, Crystal 3 | 101.56
41.2 K, Crystal 3 | 112.49
41.3 K, Crystal 3 | 125.67
41.35 K, Crystal 2 | 132.62
41.35 K, Crystal 3 | 132.62
41.4 K, Crystal 2 | 124.85
41.5 K, Crystal 2 | 113.3
41.6 K, Crystal 2 | 103.72
41.7 K, Crystal 2 | 95.82
41.8 K, Crystal 2 | 89.37
41.9 K, Crystal 2 | 84.14
42 K, Crystal 2 | 79.94
42.1 K, Crystal 2 | 76.58
42.2 K, Crystal 2 | 73.92
42.3 K, Crystal 2 | 71.85
42.4 K, Crystal 2 | 70.24
42.5 K, Crystal 2 | 68.99
42.6 K, Crystal 2 | 68.04
42.7 K, Crystal 2 | 67.3
42.8 K, Crystal 2 | 66.72
42.9 K, Crystal 2 | 66.27
43 K, Crystal 2 | 65.89
44 K, Crystal 2 | 63.21
44.5 K, Crystal 2, Vacuum adiabatic calorimetry | 62.94
45 K, Crystal 2 | 62.78
45.83 K, Crystal 2, Vacuum adiabatic calorimetry | 62.98
46 K, Crystal 2 | 63.03
48 K, Crystal 2 | 64
48.81 K, Crystal 2, Vacuum adiabatic calorimetry | 64.58
50 K, Crystal 2 | 65.53
53.62 K, Crystal 2, Vacuum adiabatic calorimetry | 68.84
54.45 K, Crystal 2, Vacuum adiabatic calorimetry | 69.65
55 K, Crystal 2 | 70.15
58.57 K, Crystal 2, Vacuum adiabatic calorimetry | 73.26
60 K, Crystal 2 | 74.51
64.06 K, Crystal 2, Vacuum adiabatic calorimetry | 78.07
70 K, Crystal 2 | 83.42
70.24 K, Crystal 2, Vacuum adiabatic calorimetry | 83.65
77.05 K, Crystal 2, Vacuum adiabatic calorimetry | 89.46
80 K, Crystal 2 | 91.91
82.72 K, Crystal 2, Vacuum adiabatic calorimetry | 94.2
84.66 K, Crystal 2, Vacuum adiabatic calorimetry | 95.88
89.87 K, Crystal 2, Vacuum adiabatic calorimetry | 100.11
90 K, Crystal 2 | 100.24
93.06 K, Crystal 2, Vacuum adiabatic calorimetry | 102.76
98.25 K, Crystal 2, Vacuum adiabatic calorimetry | 106.88
100 K, Crystal 2 | 108.32
101.97 K, Crystal 2, Vacuum adiabatic calorimetry | 109.92
107.36 K, Crystal 2, Vacuum adiabatic calorimetry | 114.09
117.01 K, Crystal 2, Vacuum adiabatic calorimetry | 121.51
120 K, Crystal 2 | 123.79
126.84 K, Crystal 2, Vacuum adiabatic calorimetry | 128.96
136.8 K, Crystal 2, Vacuum adiabatic calorimetry | 136.33
140 K, Crystal 2 | 138.69
146.83 K, Crystal 2, Vacuum adiabatic calorimetry | 143.7
156.79 K, Crystal 2, Vacuum adiabatic calorimetry | 151.02
160 K, Crystal 2 | 153.38
167.83 K, Crystal 2, Vacuum adiabatic calorimetry | 159.16
179.9 K, Crystal 2, Vacuum adiabatic calorimetry | 168.19
180 K, Crystal 2 | 168.28
192 K, Crystal 2, Vacuum adiabatic calorimetry | 177.65
200 K, Crystal 2 | 184.16
204.1 K, Crystal 2, Vacuum adiabatic calorimetry | 187.6
212.64 K, Crystal 2, Vacuum adiabatic calorimetry | 194.77
216.18 K, Crystal 2, Vacuum adiabatic calorimetry | 197.93
220 K, Crystal 2 | 201.6
223.24 K, Crystal 2, Vacuum adiabatic calorimetry | 204.46
227.23 K, Crystal 2, Vacuum adiabatic calorimetry | 208.11
229.69 K, Crystal 2, Vacuum adiabatic calorimetry | 210.53
233.56 K, Crystal 2, Vacuum adiabatic calorimetry | 214.23
239.46 K, Crystal 2, Vacuum adiabatic calorimetry | 220.49
240 K, Crystal 2 | 221.21
243.62 K, Crystal 2, Vacuum adiabatic calorimetry | 224.96
245.76 K, Crystal 2, Vacuum adiabatic calorimetry | 227.13
249.49 K, Crystal 2, Vacuum adiabatic calorimetry | 232.29
250 K, Crystal 2 | 231.72
252.11 K, Crystal 2, Vacuum adiabatic calorimetry | 235.33
255.1 K, Crystal 2, Vacuum adiabatic calorimetry | 241.32
255.37 K, Crystal 2, Vacuum adiabatic calorimetry | 242.85
256.11 K, Crystal 2, Vacuum adiabatic calorimetry | 244.36
258.04 K, Crystal 2, Vacuum adiabatic calorimetry | 251.78
258.75 K, Crystal 2, Vacuum adiabatic calorimetry | 257.57
260 K, Crystal 2 | 264.46
264.7 K, Crystal 1 | 315.22
264.7 K, Crystal 2 | 316.1
267.11 K, Crystal 1, Vacuum adiabatic calorimetry | 316.81
270 K, Crystal 1 | 318.74
270.5 K, Crystal 1, Vacuum adiabatic calorimetry | 319.58
270.99 K, Crystal 1, Vacuum adiabatic calorimetry | 319.82
272.57 K, Crystal 1, Vacuum adiabatic calorimetry | 320.97
274.72 K, Crystal 1, Vacuum adiabatic calorimetry | 322.6
275.18 K, Crystal 1, Vacuum adiabatic calorimetry | 322.61
276.68 K, Crystal 1, Vacuum adiabatic calorimetry | 324.34
277.72 K, Crystal 1, Vacuum adiabatic calorimetry | 325.42
278.97 K, Crystal 1, Vacuum adiabatic calorimetry | 327.22
280 K, Crystal 1 | 325.48
284.2 K, Crystal 1 | 328.37
284.2 K, Liquid | 317.32
298.15 K, Liquid | 326.14
300 K, Liquid | 327.33
320 K, Liquid | 340.79
340 K, Liquid | 354.76
360 K, Liquid | 369.3
380 K, Liquid | 384.16
400 K, Liquid | 399.24
420 K, Liquid | 414.4
440 K, Liquid | 429.57

[3], Liquid, Vacuum adiabatic calorimetry
Details | molar heat capacity [J/K/mol]
287.6 K | 319.48
289.37 K | 320.58
290.6 K | 321.35
296.18 K | 324.86
296.81 K | 325.28
307.92 K | 332.58
321.65 K | 341.93
336.79 K | 352.46
352.3 K | 363.66
367.76 K | 375.02
383 K | 386.42
398.09 K | 397.79
413.1 K | 409.16
428.06 K | 420.5
439.99 K | 429.5
